How the values were obtained:
[1] = Cell viability assay (CCK-8); type: cell-based, mouse; conditions: mouse, bv2 cells, VD + additive propylene glycol (PG)
Protocol: (§1) The cytotoxicity of the synthesized VD was evaluated through a cell viability assay. BV2 cells (normal mouse brain-derived cells) were used. The cells were cultured in a growth medium containing DMEM supplemented with 10% FBS (fetal bovine serum). The medium further contained 1% antibiotic-antimycotic solution, 1% insulin-transferrin-selenium, and 40 ng/mL dexamethasone, and the cells were incubated at 37°C in a humidified atmosphere containing 5% CO2. […] After maintaining the cells under serum-free conditions for 24 hours, subsequent incubation for 48 hours was performed using RPMI 1640 medium containing 10% FBS and […]. Thereafter, fresh complete medium containing Cell Counting Kit-8 (CCK-8) solution was added to the plate and incubated for 3 hours. Cell viability was measured by absorbance at 450 nm using a SpectraMax® i3 (Molecular Devices, CA, U.S.).

BV2 cells [2] = experiment: Cell viability assay (CCK-8); type: cell-based, mouse; conditions: VD alone
Protocol: as §1

BV2 cells [3] = experiment: Nitric oxide (NO) secretion analysis (Griess reagent) after LPS treatment; type: cell-based, mouse; conditions: LPS 2 hours, then VD 12 hours; all tested concentrations (up to 100 µM); compared to LPS-only group
Protocol: This evaluation example was conducted to assess the effect of VD on nitric oxide (NO) secretion. Nitric oxides such as NO are inflammatory mediators that increase during inflammatory responses or infection and serve as important indicators of inflammation severity. By determining whether VD can inhibit NO secretion, the anti-inflammatory effect of VD was evaluated. After stabilizing BV2 cells, the cells were treated with LPS for 2 hours, followed by the addition of VD and incubation for 12 hours. The supernatant was collected from the cultured cells and centrifuged at 5,000 rpm for 2 minutes at 4°C. The analysis was performed using a Griess reagent kit, and the concentration of nitric oxide was calculated by measuring absorbance at 540 nm.

NLRP3 = experiment: Western blot of inflammatory factors in LPS-treated cells; type: cell-based; conditions: compared to LPS-only treated group
Protocol: (§2) This in vitro experiment was performed to evaluate the ability of VD to suppress inflammatory responses. After extracting proteins from treated cells, the expression levels of inflammatory factors such as IL-6, iNOS, NLRP3, and TNF-α were analyzed by Western blotting. β-actin was used as an internal control for protein quantification. […] Accordingly, it may be concluded that VD affects both inflammatory and pro-inflammatory factors.

IL-6 = experiment: Western blot of pro-inflammatory factors in LPS-treated cells; type: cell-based; conditions: compared to LPS-only treated group
Protocol: as §2

TNF-α = experiment: as above; type: cell-based; conditions: compared to LPS-only treated group
Protocol: as §2

iNOS = experiment: as above; type: cell-based; conditions: compared to LPS-only treated group
Protocol: as §2

[4] = molecular target: T1, dopamine receptor 1 (D1R) (Mus musculus, UniProt Q61616); experiment: Protein-ligand interaction (CETSA); type: binding
T1 construct: endogenous in cells; BV2 inferred
Protocol: (§3) This experiment was conducted to identify the receptor targeted by VD. Dopamine receptors (D1-D5) are present on the membranes of neurons, microglia, and astrocytes. The study aimed to determine through which pathway VD exerts its anti-inflammatory effects. Since dopamine receptors are broadly classified into the D1-like and D2-like families, representative dopamine receptor 1 (D1R) and dopamine receptor 2 (D2R) were evaluated using CETSA.

[5] = molecular target: T2, dopamine receptor 2 (D2R) (Mus musculus, UniProt P61168); experiment: Protein-ligand interaction (CETSA); type: binding
T2 construct: endogenous in cells; BV2 inferred
Protocol: as §3

CREB = experiment: Western blot for CREB / pCREB in LPS-treated cells; type: cell-based; conditions: LPS 1000 ng/mL, 100 µM VD, with or without additive (PG)
Protocol: This experiment was performed to evaluate how VD regulates the CREB factor, which plays an important role in inflammatory signaling pathways. CREB (cAMP response element-binding protein) is a transcription factor that regulates various intracellular signaling pathways. When activated, CREB plays an important role in suppressing the NF-κB pathway. Since NF-κB is one of the major mediators of inflammatory responses, activation of CREB is closely associated with inflammation suppression. After inducing an inflammatory response in cells by treating them with LPS (1000 ng/mL), VD was subsequently administered at concentrations of 10 µM, 50 µM, and 100 µM. A group treated with both VD and the additive (propylene glycol, PG) was also included. Western blot analysis was then performed to examine the expression levels of CREB and its activated form, pCREB. β-actin was used as an internal control for protein quantification.

NF-κB = experiment: Western blot for pNF-κB in LPS-treated cells; type: cell-based; conditions: LPS 1000 ng/mL, 100 µM VD
Protocol: This experiment was conducted to evaluate how VD regulates the NF-κB pathway, which plays a critical role in inflammatory responses. NF-κB is a key transcription factor that regulates inflammatory responses, and when activated within cells, it promotes the expression of inflammatory cytokines. Therefore, inhibition of NF-κB activation may play an important role in suppressing inflammation. CREB acts upstream of the NF-κB pathway, and activation of CREB is associated with inhibition of the NF-κB pathway. Cells were treated with LPS (1000 ng/mL) to activate the NF-κB pathway and induce an inflammatory response, followed by treatment with VD at a concentration of 100 µM. A group treated with both VD and the additive (propylene glycol, PG) was also included for comparison. Western blot analysis was performed to examine the expression of pNF-κB, the activated form of NF-κB, and Lamin B was used as a control for nuclear protein quantification.

[6] = tested on: Alzheimer's disease mouse model (5xFAD); experiment: Western blot of hippocampus and cerebral cortex proteins after IV treatment; type: in vivo
Protocol: This evaluation example was conducted to assess the effect of VD (vanillic acid-dopamine derivative) on the expression of specific proteins when administered to a 12-month-old Alzheimer's disease mouse model (5xFAD).
A total of 13 twelve-month-old 5xFAD mice were used in this experiment. The experiment was divided into three groups: (1) a normal wild-type group, (2) a dementia-induced group administered saline (5xFAD + saline), and (3) a dementia-induced group administered VD (5xFAD + VD). Each group received intravenous (IV) injections of the respective substance six times over a total period of 20 days. After completion of the treatment, the brains were harvested from the mice, and hippocampal tissue was isolated for further analysis. Protein expression of specific factors was evaluated using the hippocampal tissue. To extract proteins, the tissue was homogenized in RIPA buffer and centrifuged at 13,000 rpm for 15 minutes at 4°C. The supernatant was collected, and protein concentration was measured using a BCA protein assay kit. Equal amounts of protein were loaded onto 8.5% SDS-PAGE gels and transferred to an Immobilon-P membrane. The membranes were blocked with 3% bovine serum albumin (BSA) in Tris-buffered saline containing 0.05% Tween-20 (TBS-T) for 3 hours at room temperature. Thereafter, diluted primary antibodies were incubated overnight at 4°C in 3% BSA. The membranes were washed three times and then incubated with secondary antibodies for 1 hour. Western blot bands were detected using PicoEPD Western Reagent and SuperSignal™ West Femto Maximum Sensitivity Substrate, and images were captured using a chemiluminescent western imaging system. The obtained images were analyzed using ImageJ software.
FIGS. 14 and 15 show Western blot results analyzing changes in protein expression in the hippocampus and cerebral cortex, respectively, after treatment with VD (vanillic acid-dopamine derivative). These experiments were conducted using Alzheimer's disease model mice (5xFAD), and the expression levels of various inflammatory and neurodegeneration-related proteins were compared to evaluate the effect of VD. Both FIGS. 14 and 15 were conducted in two independent sets, with the left panels showing the results of the first set and the right panels showing the results of the second set.
This figure quantitatively evaluates the anti-inflammatory and neuroprotective effects of VD in Alzheimer's disease model mice (5xFAD). For this purpose, VD was administered to dementia model mice at two doses, 2 mg/kg and 4 mg/kg. The inflammatory and neurodegeneration-related factors analyzed in this experiment were as follows. NLRP3 is a protein complex acting as an inflammatory factor that plays an important role in regulating immune responses and inducing inflammation. BACE-1 (Beta-site Amyloid Precursor Protein Cleaving Enzyme 1) is an enzyme that cleaves amyloid precursor protein (APP) to generate β-amyloid. β-amyloid is one of the primary causative substances of Alzheimer's disease, and its accumulation is considered a key pathological feature of the disease. IBA-1 is a marker of microglial activation, indicating activation of microglia, which play a crucial role in immune and inflammatory responses in the brain. GFAP is a marker of astrocyte activation, and increased GFAP expression indicates activation of astrocytes. When astrocytes and microglia are activated, they secrete pro-inflammatory cytokines, thereby promoting inflammatory responses.

[7] = tested on: dementia mouse model (5xFAD); experiment: Water maze experiment (cognitive function); type: in vivo
Text: Latency to Target represents the time required to reach the target platform. As dementia progresses, cognitive function declines, leading to increased latency.
Occupancy in Target Quadrant refers to the extent to which the mice reached or remained in the quadrant containing the target. […] Number of Target Crossings represents the number of times the mice crossed the location of the target platform.

[8] = 2 mg/kg and 4 mg/kg, IV six times over 20 days

T2 sequence (P61168 whole entry): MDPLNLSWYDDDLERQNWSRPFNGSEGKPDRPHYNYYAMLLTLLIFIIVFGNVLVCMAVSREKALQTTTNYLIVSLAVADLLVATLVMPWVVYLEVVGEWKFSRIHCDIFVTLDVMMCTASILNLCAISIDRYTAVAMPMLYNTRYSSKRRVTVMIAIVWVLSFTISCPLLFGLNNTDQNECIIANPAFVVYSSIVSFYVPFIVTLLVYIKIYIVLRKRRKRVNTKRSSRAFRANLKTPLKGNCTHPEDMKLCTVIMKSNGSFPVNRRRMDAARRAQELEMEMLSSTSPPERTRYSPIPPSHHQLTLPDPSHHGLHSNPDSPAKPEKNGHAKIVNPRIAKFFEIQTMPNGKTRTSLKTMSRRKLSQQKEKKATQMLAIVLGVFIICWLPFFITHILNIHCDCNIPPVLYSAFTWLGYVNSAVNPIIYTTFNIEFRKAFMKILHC
T1 sequence (Q61616 whole entry): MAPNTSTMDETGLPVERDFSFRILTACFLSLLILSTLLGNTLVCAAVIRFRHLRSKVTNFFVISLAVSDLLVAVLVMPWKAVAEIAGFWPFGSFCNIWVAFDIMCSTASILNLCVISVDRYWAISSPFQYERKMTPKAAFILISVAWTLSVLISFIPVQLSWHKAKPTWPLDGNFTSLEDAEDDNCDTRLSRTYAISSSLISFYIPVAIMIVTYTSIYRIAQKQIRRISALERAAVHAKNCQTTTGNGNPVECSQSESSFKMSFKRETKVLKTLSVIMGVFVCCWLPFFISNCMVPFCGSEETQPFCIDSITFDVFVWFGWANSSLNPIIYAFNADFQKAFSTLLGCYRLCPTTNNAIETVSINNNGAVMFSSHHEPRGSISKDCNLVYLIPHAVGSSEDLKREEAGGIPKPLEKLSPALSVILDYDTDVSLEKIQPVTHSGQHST

Structure (SMILES): COc1cc(C(=O)NCCc2ccc(O)c(O)c2)ccc1O [VD]
- viability at 100 µM ([1]; 100 µM): 84.7%
- viability at 200 µM ([1]; 200 µM): 60.1%
- viability at 400 µM ([1]; 400 µM): 43.1%
- cell viability (cytotoxicity) (BV2 cells [2]; 0-100 µM): little to no cytotoxicity
- cell viability (cytotoxicity) (BV2 cells [2]; 200 µM or more): slight cytotoxicity
- NO secretion (BV2 cells [3]): lower NO secretion
- intensity of NLRP3 (NLRP3): effectively reduced
- intensity of IL-6 (IL-6): same pattern as NLRP3
- intensity of TNF-α (TNF-α): same pattern as NLRP3
- intensity of iNOS (iNOS): same pattern as NLRP3
- CETSA change in D1R [4]: a change was observed
- CETSA change in D2R [5]: no significant change
- pCREB/CREB ratio (CREB): significant increase
- activation of NF-κB (pNF-κB) (NF-κB): significantly reduced
- expression of inflammatory cytokines [6]: reduced
- expression of phosphorylated tau [6]: reduced
- expression of β-amyloid [6]: reduced
- expression of BACE-1 [6, 8]: suppressed
- expression of GFAP [6, 8]: suppressed
- expression of IBA-1 [6, 8]: suppressed
- expression of NLRP3 [6, 8]: suppressed
- Latency to Target ([7]; 4 mg/kg VD-treated group): most significant improvement
- Number of Target Crossings ([7]; 4 mg/kg group vs untreated dementia mice): notably higher
- Number of Target Crossings ([7]; VD-treated group vs untreated dementia mice): more frequently
- Occupancy in Target Quadrant ([7]; VD-treated groups, particularly 4 mg/kg, vs untreated dementia mice): higher occupancy rate
- Latency to Target ([7]; VD-treated vs untreated dementia mice): shorter

From patent publication EP4775203A1, “VANILLIC ACID DERIVATIVE COMPOUND, THERAPEUTIC AGENT COMPOSITION FOR ALZHEIMER'S DISEASE COMPRISING SAME, AND THERAPEUTIC AGENT COMPOSITION FOR NEUROINFLAMMATION” (Theranocure Co., Ltd., priority 2023, dated 2025)
